Earlier results on 1 molecule are cited in patent US20230158004A1, “ENTERIC-COATED PREPARATION COMPRISING PIRFENIDONE HAVING IMPROVED SAFETY AND STABILITY, AND METHOD FOR PREPARING SAME” (YUNGJIN PHARM. CO., LTD., priority 2020, published 2023).

For this data set the following is noted: healthy adults and patients with idiopathic pulmonary fibrosis, total 1,650 people.

For `Cc1ccc(=O)n(-c2ccccc2)c1` [pirfenidone, 5-methyl-1-phenyl-2-(1H)-pyridone], the anorexia is 11.4%, the diarrhea is 18.8%, the headache is 10.1% and the indigestion was 16.1%. Also, the nausea was 32.4%, the photosensitivity was 9.3% and the rash was 26.2%.
